The results in this text go back to patent US20190060473A1, “HSP90 INHIBITOR DRUG CONJUGATES” (priority 2016, published 2019).

Each structure is given as a SMILES string.

For data set [1], the system named is HER2 expression in BT-474 human breast cancer cells. In words: In-Cell Western assay (ICW) for HER2 expression in BT-474 cells. It counts as cell-based. Particulars: BT-474 cells, 24 h incubation, 3-fold serial dilutions, HER2 signal normalized to DRAQ5; read-out: HER2 (ICW). As for the experimental part: The HDCs as described herein were used in various experiments to determine their activity and properties, such as binding affinity and stability in blood. An in-Cell Western assay (ICW) for HER2 expression was carried out in BT-474 human breast cancer cells. BT-474 cells were seeded in 96-well plates at a density of 20,000 cells per well. Twenty-four hours after plating, cells were dosed with graded concentrations of HDCs using 3-fold serial dilutions and incubated for 24 h. Growth media containing drug was aspirated off. Cells were then fixed in 4% paraformaldehyde for 20 min and washed three times in 0.1% Triton X-100. After blocking for 1.5 h in Odyssey Blocking Buffer (LI-COR, Lincoln, Nebr., USA), cells were incubated with primary HER2 antibody overnight at 4° C. Wells were washed three times with 0.1% Tween-20 and incubated in secondary antibody (LI-COR, Lincoln, Nebr., USA) and DRAQ5 (CST, Beverly, Mass., USA) for 1 h. Following 3 final washes with 0.1% Tween-20, antibody-antigen complexes were visualized using the Odyssey system. For quantification, HER2 signal was normalized to DRAQ5 flourescent probe.

The nature of data set [2]: Metabolic stability in mouse whole blood (LC-MS/MS). It counts as in vitro ADME. Particulars: mouse whole blood, 10 μM, percent of test compound remaining after 1 hour, average of duplicate. As for the experimental part:
Metabolic stability of various HDCs was tested in mouse blood. All compounds were tested at a concentration of 10 μM. The time dependent disappearance of test compound in mouse whole blood, and the release of the compound qualitatively as determined by liquid chromatography tandem mass spectrometry (LC-MS/MS), was tested at time points of 15 minutes, 30 minutes, 45 minutes and 1 hour. All compounds were tested in duplicate, and the average was taken. The results in Table 2 show the percent of test compound remaining after 1 hour.

The target in data set [3] is Hsp90. In words: Binding affinity (Kd) by standard methods. As for the experimental part:
Finally, binding affinity (Kd) was determined for various HDCs using standard methods.

With `CCNC(=O)c1nnc(-c2cc(C(C)C)c(O)cc2O)n1-c1ccc(CN2CCC(C(=O)N3CCC(C(=O)OC[C@@H](NC(=O)c4cc(-c5cc(NC(C)C)ncc5Cl)c[nH]4)c4cccc(Cl)c4)CC3)CC2)c(F)c1` [SDC-TRAP-0510, (S)-2-(4-(5-chloro-2-(isopropylamino)pyridin-4-yl)-1H-pyrrole-2-carboxamido)-2-(3-chlorophenyl)ethyl 1-(1-(4-(3-(2,4-dihydroxy-5-isopropylphenyl)-5-(ethylcarbamoyl)-4H-1,2,4-triazol-4-yl)-2-fluorobenzyl)piperidine-4-carbonyl)piperidine-4-carboxylate], in data set [1], the IC50 is 91 nM. Also, in data set [2], the “Mouse blood stability 1 h (% remaining)” value amounted to 77.1%. For the same compound, the Kd – broadly, the constant that tells how readily two partners part at equilibrium – in data set [3] came out at 6.14 nM.

As for `CC(C)Nc1cc(-c2c[nH]c(C(=O)N[C@H](COC(=O)C3CCN(C(=O)C4CCN(Cc5ccc(-n6c(O)nnc6-c6cc(C(C)C)c(O)cc6O)cc5F)CC4)CC3)c3cccc(Cl)c3)c2)c(Cl)cn1` [SDC-TRAP-0511, (S)-2-(4-(5-chloro-2-(isopropylamino)pyridin-4-yl)-1H-pyrrole-2-carboxamido)-2-(3-chlorophenyl)ethyl 1-(1-(4-(3-(2,4-dihydroxy-5-isopropylphenyl)-5-hydroxy-4H-1,2,4-triazol-4-yl)-2-fluorobenzyl)piperidine-4-carbonyl)piperidine-4-carboxylate], the IC50 in data set [1] was found to be 465 nM. In data set [2], the “Mouse blood stability 1 h (% remaining)” value amounted to 30.8%. The compound also had a Kd in data set [3] of 2.9 nM.

Regarding `CC(C)Nc1cc(-c2c[nH]c(C(=O)N[C@H](COC(=O)CC3CCN(C(=O)C4CCN(Cc5ccc(-n6c(O)nnc6-c6cc(C(C)C)c(O)cc6O)cc5F)CC4)CC3)c3cccc(Cl)c3)c2)c(Cl)cn1` [SDC-TRAP-0513, (S)-2-(4-(5-chloro-2-(isopropylamino)pyridin-4-yl)-1H-pyrrole-2-carboxamido)-2-(3-chlorophenyl)ethyl 2-(1-(1-(4-(3-(2,4-dihydroxy-5-isopropylphenyl)-5-hydroxy-4H-1,2,4-triazol-4-yl)-2-fluorobenzyl)piperidine-4-carbonyl)piperidin-4-yl)acetate], in data set [1], the IC50 stood at 519 nM. Moreover, in data set [2], the “Mouse blood stability 1 h (% remaining)” value came out at 48.2%. The compound further came in with a Kd in data set [3] of 0.88 nM.

As to `CCNC(=O)c1nnc(-c2cc(C(C)C)c(O)cc2O)n1-c1ccc(CN2CCC(C(=O)NC(C)(C)C(=O)OC[C@@H](NC(=O)c3cc(-c4cc(NC(C)C)ncc4Cl)c[nH]3)c3cccc(Cl)c3)CC2)c(F)c1` [SDC-TRAP-0514, (S)-2-(4-(5-chloro-2-(isopropylamino)pyridin-4-yl)-1H-pyrrole-2-carboxamido)-2-(3-chlorophenyl)ethyl 2-(1-(4-(3-(2,4-dihydroxy-5-isopropylphenyl)-5-(ethylcarbamoyl)-4H-1,2,4-triazol-4-yl)-2-fluorobenzyl)piperidine-4-carboxamido)-2-methylpropanoate], the IC50 in data set [1] is 345 nM. For the same compound, in data set [2], the “Mouse blood stability 1 h (% remaining)” value is 105%.

Regarding `CCNC(=O)c1nnc(-c2cc(C(C)C)c(O)cc2O)n1-c1ccc(CN2CCC(C(=O)N3CC(C(=O)OC[C@@H](NC(=O)c4cc(-c5cc(NC(C)C)ncc5Cl)c[nH]4)c4cccc(Cl)c4)C3)CC2)c(F)c1` [SDC-TRAP-0515, (S)-2-(4-(5-chloro-2-(isopropylamino)pyridin-4-yl)-1H-pyrrole-2-carboxamido)-2-(3-chlorophenyl)ethyl 1-(1-(4-(3-(2,4-dihydroxy-5-isopropylphenyl)-5-(ethylcarbamoyl)-4H-1,2,4-triazol-4-yl)-2-fluorobenzyl)piperidine-4-carbonyl)azetidine-3-carboxylate], the IC50 in data set [1] stood at 181 nM. The “Mouse blood stability 1 h (% remaining)” value in data set [2] worked out at 30%. The affinity in data set [3], expressed as Kd, was 0.97 nM.

Turning to `CCNC(=O)c1nnc(-c2cc(C(C)C)c(O)cc2O)n1-c1ccc(CN2CCC(C(=O)N3CC[C@H](C(=O)OC[C@@H](NC(=O)c4cc(-c5cc(NC(C)C)ncc5Cl)c[nH]4)c4cccc(Cl)c4)C3)CC2)c(F)c1` [SDC-TRAP-0516, (S)-(S)-2-(4-(5-chloro-2-(isopropylamino)pyridin-4-yl)-1H-pyrrole-2-carboxamido)-2-(3-chlorophenyl)ethyl 1-(1-(4-(3-(2,4-dihydroxy-5-isopropylphenyl)-5-(ethylcarbamoyl)-4H-1,2,4-triazol-4-yl)-2-fluorobenzyl)piperidine-4-carbonyl)pyrrolidine-3-carboxylate], the IC50 in data set [1] was 123 nM. For the same compound, the “Mouse blood stability 1 h (% remaining)” value in data set [2] was found to be 55.5%. Moreover, in data set [3], the Kd was determined as 1.29 nM.

In data set [3], `CCNC(=O)c1nnc(-c2cc(C(C)C)c(O)cc2O)n1-c1ccc(C(=O)N(C)[C@@H](C(=O)N[C@H](C(=O)N(C)C([C@@H](C)CC)[C@@H](CC(=O)N2CCC[C@@H]2[C@@H](OC)[C@@H](C)C(=O)N[C@@H](C)[C@H](O)c2ccccc2)OC)C(C)C)C(C)C)cc1` (stereo partly drawn) [SDC-TRAP-0536, 5-(2,4-dihydroxy-5-isopropylphenyl)-N-ethyl-4-(4-(((2R)-1-(((2S)-1-(((3R,5S)-1-((R)-2-((1S,2R)-3-(((1R,2S)-1-hydroxy-1-phenylpropan-2-yl)amino)-1-methoxy-2-methyl-3-oxopropyl)pyrrolidin-1-yl)-3-methoxy-5-methyl-1-oxoheptan-4-yl)(methyl)amino)-3-methyl-1-oxobutan-2-yl)amino)-3-methyl-1-oxobutan-2-yl)(methyl)carbamoyl)phenyl)-4H-1,2,4-triazole-3-carboxamide] had a Kd of 0.77 nM. This lies in the sub-nanomolar range.
